Target: human c-MER catalytic domain (Homo sapiens (Human), UniProt Q12866)
Assay: LanthaScreen TR-FRET kinase assay, c-MER
Settings: read-out: Mer TK inhibition (IC50); Biochemical IC50, TR-FRET, 10 uM ATP

human c-MER catalytic domain, sequence (Q12866 587-858): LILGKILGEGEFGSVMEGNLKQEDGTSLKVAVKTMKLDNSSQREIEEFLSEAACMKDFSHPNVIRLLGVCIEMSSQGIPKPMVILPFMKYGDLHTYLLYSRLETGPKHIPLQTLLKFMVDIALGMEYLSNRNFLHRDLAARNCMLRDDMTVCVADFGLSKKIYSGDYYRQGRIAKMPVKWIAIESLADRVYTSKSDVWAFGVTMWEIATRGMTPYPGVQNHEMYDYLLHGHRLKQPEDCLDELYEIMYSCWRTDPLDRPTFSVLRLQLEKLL

`Cn1cc(-c2cnc(N)c(C(=O)N[C@@H](COCc3ccccc3)C3CCCCC3)c2)cn1` [Example 113, (R)-2-amino-N-(2-(benzyloxy)-1-cyclohexylethyl)-5-(1-methyl-1H-pyrazol-4-yl)nicotinamide] gave an IC50 greater than 1000 nM.

Work on `Cc1ccc(CNc2ncc(-c3cnn(C)c3)cc2C(=O)N[C@H]2CCC[C@@H]2OCc2ccccc2)cc1C` [Example 72, N-((1S,2S)-2-(benzyloxy)cyclopentyl)-2-((3,4-dimethylbenzyl-)amino)-5-(1-methyl-1H-pyrazol-4-yl)nicotinamide] yielded an IC50 greater than 1000 nM.

`COC(=O)CNC(=O)c1cccc(CO[C@H]2CCC[C@@H]2NC(=O)c2cc(-c3cnn(C)c3)cnc2N)c1` [Example 55, methyl (3-((((1S,2S)-2-(2-amino-5-(1-methyl-1H-pyrazol-4-yl)nicotinamido)cyclopentyl)oxy)methyl)benzoyl)glycinate] gave an IC50 greater than 1000 nM.

In the case of `Cn1cc(-c2cnc(N)c(C(=O)N[C@H]3CCC[C@@H]3OCc3cccc(O)c3)c2)cn1` [Example 32, 2-amino-N-((1S,2S)-2-((3-hydroxybenzyl)oxy)cyclopentyl)-5-(1-methyl-1H-pyrazol-4-yl)nicotinamide], the IC50 is reported as greater than 1000 nM.

With `Cn1cc(-c2cnc(N)c(C(=O)N[C@H]3CCC[C@@H]3OCc3cccc(-c4cccc(N)c4)c3)c2)cn1` [Example 170, 2-amino-N-((1S,2S)-2-((3′-amino-[1,1′-biphenyl]-3-yl)methoxy)-cyclopentyl)-5-(1-methyl-1H-pyrazol-4-yl)nicotinamide] the IC50 was greater than 1000 nM.

Compound `Nc1ncc(-c2ccc(Oc3ccccc3)cc2)cc1C(=O)N[C@H]1CCC[C@@H]1OCc1ccccc1` [Example 267, 2-amino-N-((1S,2S)-2-(benzyloxy)cyclopentyl)-5-(4-phenoxyphenyl)nicotinamide] has an IC50 greater than 1000 nM.

For `CN1CCN(Cc2ccc(-c3ccc(CO[C@H]4CCC[C@@H]4NC(=O)c4cccnc4N)cc3)cc2C(F)(F)F)CC1` [Example 207, 2-amino-N-((1S,2S)-2-((4′-((4-methylpiperazin-1-yl)methyl)-3′-(trifluoromethyl)-[1,1′-biphenyl]-4-yl)methoxy)cyclopentyl)nicotinamide], the IC50 was less than 10 nM.

Compound `Cc1ccc(CO[C@H]2CCC[C@@H]2NC(=O)c2cc(-c3ccc(CNCC4CCN(C)CC4)cc3)cnc2N)cc1C` [Example 329, 2-amino-N-((1S,2S)-2-((3,4-dimethylbenzyl)oxy)cyclopentyl)-5-(4-((((1-methylpiperidin-4-yl)methyl)amino)methyl)phenyl)nicotinamide] has an IC50 of less than 10 nM.

`N#Cc1ccc(-c2cnc(N)c(C(=O)N[C@H]3CCC[C@@H]3OCc3ccccc3)c2)cc1` [Example 264, 2-amino-N-((1S,2S)-2-(benzyloxy)cyclopentyl)-5-(4-cyanophenyl)-nicotinamide] gave an IC50 greater than 1000 nM.

Compound `C[C@@H](OCc1ccccc1)[C@H](NC(=O)c1cc(-c2cnn(C)c2)cnc1N)C(=O)NC1CCCC1` [Example 124, 2-amino-N-((2S,3R)-3-(benzyloxy)-1-(cyclopentylamino)-1-oxobutan-2-yl)-5-(1-methyl-1H-pyrazol-4-yl)nicotinamide] has an IC50 greater than 1000 nM.

For `C[C@@H](CNC(=O)c1cc(-c2cnn(C)c2)cnc1N)OCc1ccc(Cl)cc1` [Example 103, (S)-2-amino-N-(2-((4-chlorobenzyl)oxy)propyl)-5-(1-methyl-1H-pyrazol-4-yl)nicotinamide], the IC50 was greater than 1000 nM.

In the case of `COc1ccc(CO[C@H]2CCC[C@@H]2NC(=O)c2cc(-c3cnn(C)c3)cnc2N)cc1` [Example 35, 2-amino-N-((1S,2S)-2-((4-methoxybenzyl)oxy)cyclopentyl)-5-(1-methyl-1H-pyrazol-4-yl)nicotinamide], the IC50 is reported as greater than 1000 nM.

In the case of `Cn1cc(-c2cnc(N)c(C(=O)N[C@H]3CCC[C@@H]3OCc3ccc(-c4cccc(CN)c4)cc3)c2)cn1` [Example 143], the IC50 is reported as greater than 1000 nM.

Work on `Cn1cc(-c2cnc(N)c(C(=O)N[C@H]3CCC[C@@H]3OCc3cccc(NC(=O)C4CCNCC4)c3)c2)cn1` [Example 57, 2-amino-5-(1-methyl-1H-pyrazol-4-yl)-N-((1S,2S)-2-((3-(piperidine-4-carboxamido)benzyl)oxy)cyclopentyl)nicotinamide] yielded an IC50 greater than 1000 nM.

Compound `C[C@@H](OCc1ccccc1)[C@H](NC(=O)c1cc(-c2cnn(C)c2)cnc1N)C(=O)N1CCCC1` [Example 125, 2-amino-N-((2S,3R)-3-(benzyloxy)-1-oxo-1-(pyrrolidin-1-yl)butan-2-yl)-5-(1-methyl-1H-pyrazol-4-yl)nicotinamide] has an IC50 greater than 1000 nM.

`Cc1ccc(COC[C@@H](C)NC(=O)c2cc(-c3cnn(C)c3)cnc2N)cc1C` [Example 100, (R)-2-amino-N-(1-((3,4-dimethylbenzyl)oxy)propan-2-yl)-5-(1-methyl-1H-pyrazol-4-yl)nicotinamide] was tested, and the IC50 was greater than 1000 nM.

For `CC(C)N1C[C@H](NC(=O)c2cc(-c3cnn(C)c3)cnc2N)[C@@H](OCc2ccccc2)C1` (relative stereo) [Example 94, 2-amino-N-(trans-4-(benzyloxy)-1-isopropylpyrrolidin-3-yl)-5-(1-methyl-1H-pyrazol-4-yl)nicotinamide], the IC50 was greater than 1000 nM.

`C[C@H](N)C(=O)Nc1cccc(CO[C@H]2CCC[C@@H]2NC(=O)c2cc(-c3cnn(C)c3)cnc2N)c1` [Example 58, 2-amino-N-((1S,2S)-2-((3-((S)-2-aminopropanamido)benzyl)oxy)-cyclopentyl)-5-(1-methyl-1H-pyrazol-4-yl)nicotinamide] gave an IC50 greater than 1000 nM.

With `Cn1cc(-c2cnc(N)c(C(=O)N[C@@H](COCc3ccccc3)Cc3ccccc3)c2)cn1` [Example 118, (R)-2-amino-N-(1-(benzyloxy)-3-phenylpropan-2-yl)-5-(1-methyl-1H-pyrazol-4-yl)nicotinamide] the IC50 was greater than 1000 nM.

In the case of `Cn1cc(-c2cnc(N)c(C(=O)N[C@H](COCc3ccccc3)c3ccccc3)c2)cn1` [Example 115, (S)-2-amino-N-(2-(benzyloxy)-1-phenylethyl)-5-(1-methyl-1H-pyrazol-4-yl)nicotinamide], the IC50 is reported as greater than 1000 nM.

Work on `Cn1cc(-c2cnc(N)c(C(=O)N[C@H]3COC[C@H]3O)c2)cn1` (relative stereo) [Example 92, 2-amino-N-(cis-4-hydroxytetrahydrofuran-3-yl)-5-(1-methyl-1H-pyrazol-4-yl)nicotinamide] yielded an IC50 greater than 1000 nM.

`Cn1cc(-c2cnc(N)c(C(=O)N[C@H]3CCC[C@@H]3OCc3cc(F)c(F)cc3F)c2)cn1` (relative stereo) [Example 50, 2-amino-5-(1-methyl-1H-pyrazol-4-yl)-N-(trans-2-((2,4,5-trifluorobenzyl)oxy)cyclopentyl)nicotinamide] gave an IC50 greater than 1000 nM.
